These results are taken from article PMC10629583, “Specific inhibition of an anticancer target, polo-like kinase 1, by allosterically dismantling its mechanism of substrate recognition” (Proceedings of the National Academy of Sciences of the …, 2023).

A value given as a limit tells only on which side of the number the result lay.

One test has as its target T1, PBD1 F559R mutant (Homo sapiens, UniProt P53350, F559R).
T1 construct: constructs expressing PBD1 (residues 345–603) WT (pKM7650); His; TEV site (N); made in house; host or cells: bacteria (E. coli)
Kind of test: FP-based binding/inhibition assay, PBD1 F559R. Particulars: PBD1 F559R, 2 µM protein. As for the experimental part: (§1) FP assays were carried out essentially as described previously ([35], [36]). FITC-conjugated ligands (15 nM) were mixed with PBDs at their EC85 concentrations. All the samples were analyzed approximately 30 min after reaction in a 384-well format using the SpectraMax Paradigm multimode microplate detection platform (Molecular Devices). Data were analyzed after carrying out at least three independent experiments using GraphPad Prism software version 8.
(§2) Fig. S4. Generation of F559 mutants for in vitro and cell-based assays in Fig. 4. (A) SDS-PAGE showing the proteins used for the FP assays in Fig. 4 A and B. CBB, a Coomassie Brilliant Blue– stained gel. (B) Summary of Kd and EC85 values for PBD1 WT and mutants. The Kd values for PBD1 WT and mutants were determined after extrapolating them from the binding curves as the concentration at which 50% of the FITC-Ahx-DPPLHSpTAI-NH2 are PBD1-bound. The EC85 values indicate the effective concentration of 85% of the maximal concentration calculated for each protein. The FP values were obtained 30 minutes after incubation. For the F559K and F559R mutants, we were not able to determine the EC85 values and therefore used 2 µM of these proteins for the assays in Fig. 4B. N.D., not determined. […]

The next test concerns the target T2, PBD1 F559D mutant (Homo sapiens, UniProt P53350, F559D).
T2 construct: constructs expressing PBD1 (residues 345–603) WT (pKM7650), F559D (pKM7878); His; TEV site (N); made in house; host or cells: bacteria (E. coli)
Kind of test: FP-based binding/inhibition assay, PBD1 F559D. Conditions: PBD1 F559D at EC85. As for the experimental part: as §1, §2

A further test has as its target T3, Plk2 PBD (PBD2) (Homo sapiens, UniProt Q9NYY3).
T3 construct: Purification of PBD2-His (355–685) (pKM3358) and its S652F mutant (pKM7980); His (C); made in house; host or cells: bacteria (E. coli)
T3 sequence (Q9NYY3 355-685): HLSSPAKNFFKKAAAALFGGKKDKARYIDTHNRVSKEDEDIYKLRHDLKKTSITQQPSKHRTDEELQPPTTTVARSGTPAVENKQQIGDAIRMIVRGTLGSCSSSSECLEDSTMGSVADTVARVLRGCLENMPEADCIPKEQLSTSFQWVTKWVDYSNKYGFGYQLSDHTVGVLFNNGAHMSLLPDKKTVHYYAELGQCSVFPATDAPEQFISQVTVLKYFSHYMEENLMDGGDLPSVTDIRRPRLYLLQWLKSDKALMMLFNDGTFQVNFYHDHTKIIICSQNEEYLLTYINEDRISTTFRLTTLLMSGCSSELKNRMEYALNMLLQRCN
As to the kind of experiment: FP-based inhibition assay, PBD2. It is filed as binding. Conditions: bacterially expressed purified PBD, FITC-ligand 15 nM, PBD at EC85. On the procedure: FP assays were carried out essentially as described previously ([35], [36]). […] All the samples were analyzed approximately 30 min after reaction in a 384-well format using the SpectraMax Paradigm multimode microplate detection platform (Molecular Devices). Data were analyzed after carrying out at least three independent experiments using GraphPad Prism software version 8.

In test [1] the test system is mGFP-Plk1 F559D at centrosomes, U2OS cells. As to the kind of experiment: Confocal quantification of Pendo-mGFP-Plk1 F559D in U2OS cells (siPlk1). Format: cell-based. Conditions: U2OS siPlk1, 8 μM, 2 or 16 h. As for the experimental part: (§3) To corroborate the importance of the F559 residue for Allopole-A binding, U2OS cells expressing endogenous promoter (i.e., Pendo)-controlled mGFP-Plk1 WT or F559D mutant were depleted of endogenous Plk1 by RNAi for 48 h (SI Appendix, Fig. S4C), treated with control DMSO or 8 μM of Allopole for 2 or 16 h, and fixed (SI Appendix, Fig. S4D). Afterward, the level of mGFP fluorescence was quantified using confocal microscopy (Fig. 4 C and D). As expected from the results shown in Fig. 1 C and D, Allopole delocalized mGFP-Plk1 WT from centrosomes within 2 h after treatment, and this effect was sustained for up to 16 h. […] This could be attributable to the fact that unlike PBIP1, which binds to PBD1 through the self-priming and binding mechanism ([49]), Bub1, BubR1, and likely Cdc25C require Cdc2-dependent priming phosphorylation to interact with PBD1 ([42]–[44]). […]
(§4) Confocal images of unsaturated fluorescence signals were acquired under the same laser intensity at the 12-bit resolution. Fluorescence intensities for identifiable centrosome and kinetochore signals were quantified after the maximum-intensity projection of z-stacks using the Zeiss ZEN v2.1 software (Carl Zeiss Microscopy, LLC). Data were quantified from three independent experiments.

Test [2] has as its system mGFP-Plk1 WT at centrosomes, U2OS cells. Kind of test: Confocal quantification of Pendo-mGFP-Plk1 WT in U2OS cells (siPlk1). It is filed as cell-based. Particulars: U2OS siPlk1, 8 μM. As for the experimental part: as §3, §4
Test [3] concerns Flag-Plk1 F559D interactions with p-PBIP1, p-Bub1, p-BubR1, p-Cdc25C. Kind of test: Coimmunoprecipitation, HeLa cells expressing Flag-Plk1 F559D. Format: cell-based. Particulars: 20 μM for 2 h, nocodazole + okadaic acid. On the procedure: For coimmunoprecipitation analyses shown in Figs. 1C and 4F, HeLa cells stably expressing PCMV-Flag-Plk1 WT (pKM3863) (Fig. 1C) and its respective F559D mutant (pKM7979) (Fig. 4F) were generated using a lentiviral expression system. Prior to harvest, the cells were treated with 600 nM of nocodazole and 300 nM of okadaic acid (OA) for 16 h and 1.5 h, respectively, to enrich the level of phosphorylated proteins and additionally treated with either control DMSO or 20 μM of Allopole for 2 h. Immunoprecipitation was carried out essentially as described previously ([49]) in TBSN buffer [20 mM Tris–Cl (pH 8.0), 150 mM NaCl, 0.5% NP-40, 5 mM EGTA, 2 mM MgCl2, 1.5 mM EDTA, 2 mM DTT, 20 mM p-nitrophenyl phosphate (PNPP), and protease inhibitor cocktail (Roche)] using anti-Flag antibody (Sigma-Aldrich). Immunoprecipitates were separated by sodium dodecyl sulfate–polyacrylamide gel electrophoresis (SDS-PAGE) and then immunoblotted according to standard procedures using an enhanced chemiluminescence detection system (Thermo Fisher Scientific). The antibodies that were used to detect specific indicated proteins in Fig. 1C are listed in SI Appendix, Table S6.

T1 sequence (P53350 345-603 F559R): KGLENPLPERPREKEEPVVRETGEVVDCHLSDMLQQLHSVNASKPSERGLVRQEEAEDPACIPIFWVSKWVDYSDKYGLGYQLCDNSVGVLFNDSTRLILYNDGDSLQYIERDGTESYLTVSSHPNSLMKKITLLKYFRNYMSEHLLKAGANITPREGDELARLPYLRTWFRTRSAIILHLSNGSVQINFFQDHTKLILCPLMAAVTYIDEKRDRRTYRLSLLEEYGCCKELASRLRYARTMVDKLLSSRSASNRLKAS
T2 sequence (P53350 345-603 F559D): as the sequence (P53350 345-603 F559R) above, with R215D counted along it

For `O=c1c2sc(Cl)cc2n2c(=S)[nH]nc2n1CC1CC1` [Allopole-A], the “Inhibition of FITC-phosphopeptide binding (in words)” value on PBD1 F559R mutant and at PBD1 F559D mutant was “failed to inhibit” each time. In addition, on Plk2 PBD (PBD2), the “PBD2 IC50 ± SD” value is reported as “N. S”.
Consider `Cn1cnc([N+](=O)[O-])c1Sc1nnc2n(CC3CC3)c(=O)c3sc(Cl)cc3n12` [Allopole], for which the “Level of centrosome-localized mGFP-Plk1 F559D (in words)” value in test [1] is listed as “failed to alter the level”. The “Time to delocalization of mGFP-Plk1 WT from centrosomes” value in test [2] is reported as at most 2 h. Besides, the “Phosphoproteins coprecipitating with Flag-Plk1 F559D (in words)” value in test [3] is “coimmunoprecipitated p-PBIP1, p-Bub1, p-BubR1, and p-Cdc25C effectively”.
